Experimental data: patent US10028960B2, “Pyrimidine compounds as JAK kinase inhibitors” (THERAVANCE BIOPHARMA R&D IP, LLC, priority 2016, dated 2018)
Where two headings read alike, the source gives them in different places.

Columns and labels:
[1] = Colon pharmacokinetics in rats; settings: Sprague Dawley, rat, colon and plasma, po, 5 mg/kg
Procedure: The test compound was formulated in 0.5% methyl-cellulose in water and dosed via oral gavage at 3.2 mg/kg and 100 mg/kg to Sprague Dawley rats. At various time points (typically 0.5, 1, 3, 6, 24 hr) post dosing, blood samples were removed via cardiac puncture and intact colons were excised from the rats. Blood samples were centrifuged at 1500×g for 15 min to collect plasma. Colons were washed with ice cold phosphate buffered saline (PBS), weighed, and homogenized at a dilution of 1:10 in PBS. Plasma and colon levels of test compound were determined by LC-MS analysis against analytical standards constructed into a standard curve in the test matrix. A colon to plasma ratio was determined as the ratio of the colon AUC to the plasma AUC in μg hr/g.

[2] = system: IL-13 induced STAT6 phosphorylation in HT-29 human colorectal adenocarcinoma cells; assay: Cellular JAK potency assay: inhibition of IL-13 induced STAT6 phosphorylation; format: cell-based; settings: Homo sapiens
[3] = in vivo
Source text: The objective of this assay was to determine the epidermal, dermal and plasma pharmacokinetics of a test compound following a 24 hr exposure to intact mouse or mini-pig skin.
Twenty-four hours prior to dosing the hair was shaved from the back of 25 g male Balb/c mice exposing an area at of least 6 cm^2 (about 10% of body surface) and, in a separate experiment, of 10 kg Gottingen mini-pigs exposing an area of at least 450 cm^2 (about 10% of body surface). […] The skin was covered with an adhesive cover to prevent loss of compound to the cage or bedding.
Following 24 h exposure, the backs were gently washed with soap and water to remove non-absorbed drug and patted dry. Immediately following this washing, blood was drawn by cardiac puncture from the mice and via venipuncture from the mini-pigs. The outer skin (stratum corneum) was then removed by adhesive tape stripping. Upon exposure of the epidermis a 0.5 cm punch biopsy was taken. The epidermis and dermis were quickly separated, weighed and snap frozen.

For `COc1cc(Nc2cc(CO)[nH]n2)nc(N(C)[C@@H]2C[C@H]3CCC[C@@H](C2)N3S(=O)(=O)N2CC(C#N)C2)n1` [Example 2, 1-(((1R,3s,5S)-3-((4-((5-(Hydroxymethyl)-1H-pyrazol-3-yl)amino)-6-methoxypyrimidin-2-yl)(methyl)amino)-9-azabicyclo[3.3.1]nonan-9-yl)sulfonyl)azetidine-3-carbonitrile], the Kp [1] was over 250, the IC50 ([2]; HT-29, cellular assay, Assay 2, read-out: IC50 for inhibition of IL-13) was at most 50 nM and the IC50 ([2]; IL-13 induced STAT6 phosphorylation, HT-29 cells, read-out: HT-29 (pIC50) (converted)) was 31.6 to 200 nM. For the same molecule, the “duration of sustained dermal levels” value ([3]; Gottingen, minipig) was “at least 7 days” and the “duration of sustained dermal levels” value ([3]; male, Balb/c, mouse) was “at least 2 days”.
